Converted amounts (≈) assume the structure as drawn. Read-outs that look alike come from different tables or passages of the source.
Key:
RPMI8226 cells = assay: Cell proliferation assay (WST assay, Cell Counting Kit-8), myeloma cell strain RPMI8226; type: cell-based; settings: 4 days of incubation, concentration yielding 50% inhibition of cell proliferation
Method: The CO2 concentration (%) in a CO2 incubator is expressed by the ratio of CO2 in the atmosphere in vol %.
Myeloma cell strain RPMI8226 (DS Pharma Biomedical Co., Ltd.) was incubated in liquid culture in a CO2 incubator (5% CO2) in RPMI1640 medium containing 10% (v/v) fetal calf serum. The resulting cells were suspended in RPMI640 medium(GIBCO) containing 10% (v/v) fetal calf serum and plated in 96-well flat-bottomed microplates (Corning Incorporated) in 100 μl/mL ([…]) per well. Furtheremore, each of the compounds prepared in Synthetic Examples was dissolved in dimethylsulfoxide and added at 0.1% (v/v) to final concentrations of 0.1 to 10 μg/mL. As the negative control, dimethyl sulfoxide was added at 0.1% (v/v).
After 4 days of incubation at 37° C. in liquid culture in a CO2 incubator (5% CO2), the viable cells were counted by the WST assay. A 10-μl aliquot of Cell Counting Kit-8 reagent solution (Dojindo Molecular Technologies, Inc.) was added to each well and incubated in a CO2 incubator (5% CO2) for 4 hours for color reaction, and light absorbance was measured at 450 nm by using a microplate reader. As the cell growth inhibitory activities in the presence of the test compounds relative to that in the absence of them (negative control), the concentrations (IC50) yielding 50% inhibition of cell proliferation were calculated.

[1] = Homo sapiens, RPMI-8226, 96 h, read-out: IC50

| Structure (SMILES) | IC50 (RPMI8226 cells) [µg/mL] | IC50 (RPMI8226 cells; [1]) [µg/mL] | melting point [°C] |
| --- | --- | --- | --- |
| CCCCCCc1ccc(-c2c(C(C)C)nn(C(C)(C)Cc3ccc(C)cc3)c2O)cc1 [Compound No. 3-07, 4-(4-hexylphenyl)-3-isopropyl-1-(2-methyl-1-p-tolylpropan-2-yl)-1H-pyrazol-5-ol] | 5.3 (≈ 12.3 µM) | 8.8 (≈ 20.3 µM) | – |
| CC(C)C1=NN(C(C)(C)Cc2ccc(Br)cc2)C(=O)C1 [Compound No. 3-12, 1-(1-(4-bromophenyl)-2-methylpropan-2-yl)-3-isopropyl-1H-pyrazol-5(4H)-one] | – | 5.4 (≈ 16 µM) | – |
| COc1c(C)c(-c2ccccc2)nn1C(C)(C)c1ccccc1 [Compound No. 3-14, 5-methoxy-4-methyl-3-phenyl-1-(2-phenylpropan-2-yl)-1H-pyrazole] | – | 7.9 (≈ 25.8 µM) | – |
| COC(=O)c1ccc(-c2c(C(C)C)nn(C(C)(C)Cc3ccccc3)c2O)cc1 [Compound No. 4-23, methyl 4-(5-hydroxy-3-isopropyl-1-(2-methyl-1-phenylpropan-2-yl)-1H-pyrazol-4-yl)benzoate] | – | 6.3 (≈ 16.1 µM) | – |
| CC(C)c1nn(C(C)(C)Cc2ccccc2)c(O)c1C(=O)c1ccccc1 [Compound No. 4-71, (5-hydroxy-3-isopropyl-1-(2-methyl-1-phenylpropan-2-yl)-1H-pyrazol-4-yl)(phenyl)methanone] | – | 3.2 (≈ 8.83 µM) | – |
| CCCCCCc1ccc(-c2c(C#N)nn(C(C)(C)Cc3ccc(C)cc3)c2O)cc1 [Compound No. 4-86, 4-(4-Hexylphenyl)-5-hydroxy-1-(2-methyl-1-(p-tolyl)propan-2-yl)-1H-pyrazole-3-carbonitrile] | – | 3.3 (≈ 7.94 µM) | 140 to 142 |
| CON=C(C)c1c(C(C)C)nn(C(C)(C)Cc2ccccc2)c1O [Compound No. 4-89, 1-(5-Hydroxy-3-isopropyl-1-(2-methyl-1-phenylpropan-2-yl)-1H-pyrazol-4-yl)ethanone O-methyl oxime] | – | 4.7 (≈ 14.3 µM) | – |
| CCCCCCc1ccc(-c2cnn(C(C)(C)Cc3ccc(C)cc3)c2O)cc1 [Compound No. 4-90, 4-(4-Hexylphenyl)-1-(2-methyl-1-(p-tolyl)propan-2-yl)-1H-pyrazol-5-ol] | – | 5.5 (≈ 14.1 µM) | 149 to 151 |

Results, then the compound that gave them:

| IC50 (RPMI8226 cells) [µg/mL] | IC50 (RPMI8226 cells; [1]) [µg/mL] | melting point [°C] | Structure (SMILES) |
| --- | --- | --- | --- |
| – | 5.4 (≈ 18.5 µM) | – | COc1cc(-c2ccccc2)nn1C(C)(C)c1ccccc1 [Compound No. 3-13, 5-methoxy-3-phenyl-1-(2-phenylpropan-2-yl)-1H-pyrazole] |
| – | 3.5 (≈ 12 µM) | – | CC(C)(Cc1ccccc1)N1N=C(c2ccccc2)CC1=O [Compound No. 3-16, 1-(2-methyl-1-phenylpropan-2-yl)-3-phenyl-1H-pyrazol-5(4H)-one] |
| – | 3.3 (≈ 9.78 µM) | – | CC(C)C1=NN(C(C)(C)Cc2ccccc2)C(=O)C1Br (stereo not shown) [Compound No. 3-47, 4-bromo-3-isopropyl-1-(2-methyl-1-phenylpropan-2-yl)-1H-pyrazol-5(4H)-one] |
| – | 11.1 (≈ 40.5 µM) | – | COC(=O)CC1=NN(C(C)(C)c2ccccc2)C(=O)C1 [Compound No. 4-01, methyl 2-(5-oxo-1-(2-phenylpropan-2-yl)-4,5-dihydro-1H-pyrazol-3-yl)acetate] |
| – | 5.5 (≈ 17.4 µM) | – | CCOC(=O)c1c(C(C)C)nn(C(C)(C)c2ccccc2)c1O [Compound No. 4-27, ethyl 5-hydroxy-3-isopropyl-1-(2-phenylpropan-2-yl)-1H-pyrazole-4-carboxylate] |

Source: patent publication US8658686B2, “Pyrazole compounds having therapeutic effect on multiple myeloma” (Nissan Chemical Industries, Ltd., priority 2010, dated 2014)
